Values belong to the molecule of their own block, whether it stands above or below them. The source made the active and inactive calls. The rule behind the calls is not given here.
Assays:
[1] = target: T1, Adrenergic receptor alpha-1 (Rattus norvegicus, UniProt P15823+P23944+P43140); experiment: Displacement of [3H]prazosin from alpha1 adrenergic receptor in rat cortex membranes measured after 30 mins by Microbeta2 scintillation counting method; type: cell membranes
T1 sequence (P15823 whole entry): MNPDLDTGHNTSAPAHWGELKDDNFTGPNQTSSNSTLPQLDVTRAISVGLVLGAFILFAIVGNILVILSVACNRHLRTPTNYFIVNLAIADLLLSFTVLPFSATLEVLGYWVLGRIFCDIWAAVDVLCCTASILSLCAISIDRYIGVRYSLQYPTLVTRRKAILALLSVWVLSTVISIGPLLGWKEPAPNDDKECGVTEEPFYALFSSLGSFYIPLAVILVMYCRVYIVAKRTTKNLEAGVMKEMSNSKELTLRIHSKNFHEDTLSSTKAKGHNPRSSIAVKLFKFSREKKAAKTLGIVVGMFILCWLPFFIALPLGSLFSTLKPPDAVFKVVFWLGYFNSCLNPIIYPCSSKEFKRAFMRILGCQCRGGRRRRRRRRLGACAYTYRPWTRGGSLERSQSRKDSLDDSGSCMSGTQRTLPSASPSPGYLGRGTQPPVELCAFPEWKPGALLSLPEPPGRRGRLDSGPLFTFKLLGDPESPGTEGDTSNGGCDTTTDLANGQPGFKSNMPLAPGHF
T1 sequence (P23944 whole entry): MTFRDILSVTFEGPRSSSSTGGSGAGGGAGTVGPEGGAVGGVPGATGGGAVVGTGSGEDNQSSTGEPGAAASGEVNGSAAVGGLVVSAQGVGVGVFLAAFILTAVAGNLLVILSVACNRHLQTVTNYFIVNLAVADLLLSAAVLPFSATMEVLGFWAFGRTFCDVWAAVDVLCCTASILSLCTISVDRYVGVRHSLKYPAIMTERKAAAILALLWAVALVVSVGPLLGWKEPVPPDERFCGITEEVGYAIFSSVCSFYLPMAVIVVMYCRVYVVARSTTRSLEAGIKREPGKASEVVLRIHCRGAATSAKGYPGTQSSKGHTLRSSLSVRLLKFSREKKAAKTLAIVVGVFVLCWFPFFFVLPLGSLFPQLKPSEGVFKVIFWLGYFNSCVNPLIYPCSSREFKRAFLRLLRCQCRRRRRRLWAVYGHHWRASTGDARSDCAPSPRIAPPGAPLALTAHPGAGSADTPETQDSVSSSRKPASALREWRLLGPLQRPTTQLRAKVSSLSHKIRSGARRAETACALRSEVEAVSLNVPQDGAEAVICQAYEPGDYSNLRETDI
T1 sequence (P43140 whole entry): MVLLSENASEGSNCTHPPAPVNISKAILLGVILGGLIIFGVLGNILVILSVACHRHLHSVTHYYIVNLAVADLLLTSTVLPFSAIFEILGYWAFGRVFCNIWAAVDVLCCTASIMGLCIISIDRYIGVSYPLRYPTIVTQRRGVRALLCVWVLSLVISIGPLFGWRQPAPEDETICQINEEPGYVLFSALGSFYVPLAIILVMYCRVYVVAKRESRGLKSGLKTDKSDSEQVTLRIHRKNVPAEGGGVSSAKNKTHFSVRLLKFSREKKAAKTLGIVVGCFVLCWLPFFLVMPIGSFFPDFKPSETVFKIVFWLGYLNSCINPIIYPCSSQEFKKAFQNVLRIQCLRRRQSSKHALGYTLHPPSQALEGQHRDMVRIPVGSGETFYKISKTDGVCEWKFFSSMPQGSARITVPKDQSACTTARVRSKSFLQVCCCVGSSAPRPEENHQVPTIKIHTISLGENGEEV

[2] = target: T2, 5-hydroxytryptamine receptor 1A (Homo sapiens, UniProt P08908); experiment: Biased agonist activity at human 5-HT1A receptor stably expressed in CHO-K1 cells co-expressing Galpha16/GPCR assessed as increase in calcium mobilization measured for 30 secs in presence of coelenterazine by aequorin-reporter gene based luminescence assay; type: functional, cell-based
T2 sequence (P08908 whole entry): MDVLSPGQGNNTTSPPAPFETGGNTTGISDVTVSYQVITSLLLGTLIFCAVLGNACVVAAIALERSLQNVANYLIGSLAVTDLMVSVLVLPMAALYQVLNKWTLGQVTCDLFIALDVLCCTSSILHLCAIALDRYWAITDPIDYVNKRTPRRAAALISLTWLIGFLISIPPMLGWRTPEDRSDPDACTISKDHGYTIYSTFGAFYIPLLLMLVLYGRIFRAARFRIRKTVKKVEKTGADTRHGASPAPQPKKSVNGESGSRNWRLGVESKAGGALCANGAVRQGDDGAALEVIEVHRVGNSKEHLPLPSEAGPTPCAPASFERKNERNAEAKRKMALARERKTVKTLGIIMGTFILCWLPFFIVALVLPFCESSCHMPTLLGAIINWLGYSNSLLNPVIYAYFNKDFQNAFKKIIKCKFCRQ

[3] = Hepatotoxicity in human HepG2 cells assessed as concentration required to show 50% cell viability measured after 72 hrs by celltiter 96 aqueous non-Radioactive cell proliferation assay; type: toxicity, cell-based; settings: read-out: Activity
[4] = Stability in rat liver microsomes assessed as parent compound remaining at 50 uM preincubated for 5 mins followed by NADPH addition and measured after 2 hrs by LC-MS analysis; type: ADME, Microsome; settings: time 125 min, read-out: Stabilty
Rattus norvegicus [5] = experiment: Antidepressant activity in Wistar rat assessed as reduction in immobility time at […], po treated 60 mins prior to testing and measured during the 5 min test period in presence of WAY100635 by Porsolt-forced swim test; type: functional, organism-based
[6] = Drug uptake in Wistar rat brain at 0.31 to 1.25 mg/kg, po by HPLC analysis; type: ADME, organism-based; settings: in vivo, dose 0.31-1.25 mg/kg
[7] = Drug uptake in Wistar rat serum at 0.31 to 1.25 mg/kg, po by HPLC analysis; type: ADME, organism-based; settings: in vivo, dose 0.31-1.25 mg/kg
[8] = Toxicity in po dosed Wistar rat assessed as induction of lower lip retraction at 2 times MED treated for 10 mins; type: organism-based; settings: in vivo
Rattus norvegicus [9] = experiment: Antidepressant activity in po dosed Wistar rat assessed as reduction in immobility time treated 60 mins prior to testing and measured during the 5 min test period by Porsolt-forced swim test; type: functional; settings: 1 h, read-out: MED
[10] = Permeability of the compound at 100 uM measured after 40 mins by PAMPA; type: ADME; settings: read-out: permeability
[11] = target: T2, 5-hydroxytryptamine receptor 1A; experiment: Displacement of [3H]8-OH-DPAT from human 5-HT1A receptor stably expressed in CHO-K1 cell membranes measured after 60 mins by Microbeta2 scintillation counting method
D(2) dopamine receptor = D(2) dopamine receptor (Homo sapiens, UniProt P14416); experiment: Displacement of [3H]methylspiperone from human D2 receptor stably expressed in CHO-K1 cell membranes measured after 60 mins by Microbeta2 scintillation counting method
Chain of D(2) dopamine receptor (P14416 whole entry): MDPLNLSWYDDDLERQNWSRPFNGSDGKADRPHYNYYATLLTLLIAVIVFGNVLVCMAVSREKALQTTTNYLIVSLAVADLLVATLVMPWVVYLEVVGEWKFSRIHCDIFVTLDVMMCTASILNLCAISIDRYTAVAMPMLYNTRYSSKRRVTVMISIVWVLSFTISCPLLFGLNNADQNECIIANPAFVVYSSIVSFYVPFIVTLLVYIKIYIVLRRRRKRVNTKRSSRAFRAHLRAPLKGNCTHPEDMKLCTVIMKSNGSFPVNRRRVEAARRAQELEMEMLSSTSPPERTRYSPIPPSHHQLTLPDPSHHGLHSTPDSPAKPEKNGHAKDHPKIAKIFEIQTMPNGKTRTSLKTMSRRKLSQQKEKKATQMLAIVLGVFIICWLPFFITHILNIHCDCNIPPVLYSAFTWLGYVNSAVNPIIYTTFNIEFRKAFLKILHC

[12] = target: T2, 5-hydroxytryptamine receptor 1A; experiment: Biased agonist activity at human 5-HT1A receptor stably expressed in CHO-K1 cells assessed as increase in ERK1/2 phosphorylation after 15 mins by Alphalisa assay
[13] = target: T2, 5-hydroxytryptamine receptor 1A; experiment: Biased agonist activity at human 5-HT1A receptor stably expressed in CHO-K1 cells assessed as inhibition of forskolin-induced cAMP accumulation after 40 mins by LANCE Ultra cAMP kit-based TR-FRET assay; type: functional, cell-based
[14] = target: T2, 5-hydroxytryptamine receptor 1A; experiment: Biased agonist activity at Gal4-VP16 transcription factor linked human 5-HT1A receptor expressed in human U2OS cells assessed as induction of beta-arrestin2 recruitment measured after 5 hrs by Tango assay; type: cell-based
[15] = Drug uptake in Wistar rat serum at 0.04 to […], po by HPLC analysis; type: ADME, organism-based; settings: in vivo, dose 0.04-0.63 mg/kg
[16] = Drug uptake in Wistar rat brain at 0.04 to […], po by HPLC analysis; type: ADME, organism-based; settings: in vivo, dose 0.04-0.63 mg/kg
[17] = Toxicity in po dosed Wistar rat assessed as induction of lower lip retraction at 4 times MED treated for 10 mins; type: organism-based; settings: in vivo

Structure (SMILES): Cc1cnc(CNCC2(F)CCN(C(=O)c3ccc(F)c(Cl)c3)CC2)nc1
pKi [1]: < 6 | EC50 [2]: 302 nM

Structure (SMILES): N#CC(C#N)=NNc1cccc(Cl)c1 [CARBONYL CYANIDE M-CHLOROPHENYLHYDRAZONE]
CC50 at 72 h [3]: < 10000 nM

Structure (SMILES): O=C(c1ccc(F)c(Cl)c1)N1CCC(F)(CNCCOc2cccc3cccnc23)CC1
remaining at 2 h, 50 µM [4]: 73%

Structure (SMILES): O=C(c1ccc(F)c(Cl)c1)N1CCC(F)(CNCCOc2cccc3[nH]ccc23)CC1
Activity (Rattus norvegicus [5]): inactive | Drug uptake [6]: Active | Drug uptake [7]: Active | Activity [8]: Toxic | minimal effective dose (Rattus norvegicus [9]): 0.63 mg/kg | Papp at 40 min, 100 µM [10]: 4.7 ×10⁻⁶ cm/s | CC50 at 72 h [3]: > 50000 nM

Structure (SMILES): O=C(c1ccc(F)c(Cl)c1)N1CCC(F)(CNCCOc2ccccc2)CC1
remaining at 2 h, 50 µM [4]: 54% | Papp at 40 min, 100 µM [10]: 8.6 ×10⁻⁶ cm/s | CC50 at 72 h [3]: > 50000 nM

Structure (SMILES): O=C(c1ccc(F)c(Cl)c1)N1CCC(F)(CNCCOc2cccc3c2CCN3)CC1
Ki [11]: 0.0447 nM | pKi [1]: 6.36 | Ki (D(2) dopamine receptor): > 1000 nM | EC50 [12]: 0.00363 nM | EC50 [13]: 0.0132 nM | EC50 [14]: 0.00513 nM | EC50 [2]: 3.55 nM

Structure (SMILES): CNc1ccccc1OCCNCC1(F)CCN(C(=O)c2ccc(F)c(Cl)c2)CC1
Drug uptake [15]: Active | Drug uptake [16]: Active | Activity [17]: Non-Toxic | minimal effective dose (Rattus norvegicus [9]): 0.16 mg/kg | pKi [1]: 6.04 | remaining at 2 h, 50 µM [4]: 54% | Papp at 40 min, 100 µM [10]: 6.7 ×10⁻⁶ cm/s

Structure (SMILES): O=C(c1ccc(F)c(Cl)c1)N1CCC(F)(CNCCOc2ccccn2)CC1
remaining at 2 h, 50 µM [4]: 54%

Structure (SMILES): CC1(C)Cc2cccc(OCCNCC3(F)CCN(C(=O)c4ccc(F)c(Cl)c4)CC3)c2O1
pKi [1]: 7.76

Structure (SMILES): COc1cccc2c1C(=O)c1c(O)c3c(c(O)c1C2=O)C[C@@](O)(C(=O)CO)C[C@@H]3O[C@H]1C[C@H](N)[C@H](O)[C@H](C)O1 [DOXORUBICIN]
CC50 at 72 h [3]: < 1000 nM

Structure (SMILES): O=C(c1ccc(F)c(Cl)c1)N1CCC(F)(CNCCOc2ccccc2F)CC1
pKi [1]: < 6

Next, values leading:

pKi [1]: < 6
Structure (SMILES): O=C(c1ccc(F)c(Cl)c1)N1CCC(F)(CNCCOc2cccc(C(F)(F)F)c2)CC1

pKi [1]: < 6
Structure (SMILES): CN(C)c1cccc(OCCNCC2(F)CCN(C(=O)c3ccc(F)c(Cl)c3)CC2)c1

pKi [1]: < 6
Structure (SMILES): COc1ccc(OCCNCC2(F)CCN(C(=O)c3ccc(Cl)c(Cl)c3)CC2)cc1

Ki [11]: 0.0251 nM | pKi [1]: < 6 | Ki (D(2) dopamine receptor): > 1000 nM
Structure (SMILES): O=C(c1ccc(Cl)c(Cl)c1)N1CCC(F)(CNCCOc2cccc(Cl)c2)CC1

remaining at 2 h, 50 µM [4]: 73%
Structure (SMILES): CC(=O)Nc1cccc(OCCNCC2(F)CCN(C(=O)c3ccc(F)c(Cl)c3)CC2)c1

pKi [1]: < 6
Structure (SMILES): O=C(c1ccc(F)c(Cl)c1)N1CCC(F)(CNCCOc2ccccc2Cl)CC1

pKi [1]: < 6
Structure (SMILES): CC(=O)Nc1cccc(OCCNCC2(F)CCN(C(=O)c3ccc(Cl)c(Cl)c3)CC2)c1

Ki [11]: 0.0204 nM | pKi [1]: 6.2 | Ki (D(2) dopamine receptor): > 1000 nM | EC50 [12]: 20 nM | EC50 [13]: 39.8 nM | EC50 [14]: 617 nM | EC50 [2]: 646 nM
Structure (SMILES): O=C(c1ccc(Cl)c(Cl)c1)N1CCC(F)(CNCCOc2cccc(F)c2)CC1

Reference: ChEMBL document CHEMBL4665789, “Discovery of Novel pERK1/2- or β-Arrestin-Preferring 5-HT Receptor-Biased Agonists: Diversified Therapeutic-like versus Side Effect Profile” (J Med Chem, 2020)
